Results as given in patent publication US20260027116A1, “Methods of Treating Chronic Graft-Versus-Host Disease Following Allogeneic Hematopoietic Stem Cell Transplantation” (Kadmon Corporation, LLC, priority 2022, published 2026).

Columns and labels:
[1] = Example 1: plasma pharmacokinetics (Cmax, Tmax, AUC0-6 hr) of belumosudil and metabolites; assay type: in vivo, human; conditions: for AUC0-6 hr, Geometric Mean (Geometric Coefficient of Variation): plasma
Protocol: Cmax was the maximum observed plasma concentration, obtained by a non-compartmental analysis. […] Timeframe: Cycles 1 and 2: pre-dose (0 hour), 1, 2, 3, 4, 5, and 6 hours post-dose on Day 1. […] Here, ‘number analyzed’=participants with available data for each specified category.
Tmax was defined as time to reach maximum observed plasma concentration, obtained by a non-compartmental analysis. […] Timeframe: Cycles 1 and 2: pre-dose (0 hour), 1, 2, 3, 4, 5, and 6 hours post-dose on Day 1. Analysis was performed on PK population. Here, ‘number analyzed’=participants with available data for each specified category.
AUC0-6 hr was defined as area under the plasma concentration versus time curve from time 0 to 6 hours post-dose, obtained by a non-compartmental analysis from the concentration-time data. […] Timeframe: Cycles 1 and 2: pre-dose (0 hour), 1, 2, 3, 4, 5, and 6 hours post-dose on Day 1. Analysis was performed on PK population. Here, ‘number analyzed’=participants with available data for each specified category.

[2] = system: cGVHD; assay: Example 1: corticosteroid and calcineurin inhibitor dose change; assay type: in vivo, human
Protocol: Progression was defined per the 2014 NIH cGVHD Consensus Criteria. Long-term follow-up was conducted every 8 weeks until study closeout. […] Screening was conducted within 28 days of the first study dose. Response was initially assessed after two cycles; however, this was amended to evaluate response on day 1 of each cycle, starting at cycle 2 day 1.
Change from Baseline in Corticosteroids Dose. An EOT visit was performed within 3 days after the participant's last dose of study drug. Baseline value was defined as valid and last non-missing value obtained within 28 days prior to participant receiving first study medication. The mITT population was analyzed, with the ‘overall number of participants analyzed’=participants with available data for this outcome measure.
Change from Baseline in Calcineurin Inhibitor (CNI). Calcineurin inhibitors included systemic tacrolimus and cyclosporine. Number of participants who took CNI at Baseline and had reduction and discontinuation in CNI use as compared to Baseline during the study are reported in this outcome measure. EOT visit was performed within 3 days after the participant's last dose of study drug. Baseline value was defined as valid and last non-missing value obtained within 28 days prior to participant receiving first study medication.

For CC(C)NC(=O)COc1cccc(-c2nc(Nc3ccc4[nH]ncc4c3)c3ccccc3n2)c1 [Belumosudil, 2-{3-[4-(1H-indazol-5-ylamino)-2-quinazolinyl]phenoxy}-N-(propan-2-yl) acetamide], the “Cmax, geometric mean (geometric CV)” value ([1]; Cycle 1 Day 1, Cohort 1, belumosudil 200 mg QD) was 2500 nanograms per milliliter, the “Cmax, geometric mean (geometric CV)” value ([1]; Cycle 1 Day 1, Cohort 2, belumosudil 200 mg BID) was 1400 nanograms per milliliter and the “Cmax, geometric mean (geometric CV)” value ([1]; Cycle 1 Day 1, Cohort 3, belumosudil 400 mg QD) was 2960 nanograms per milliliter. The “Cmax, geometric mean (geometric CV)” value ([1]; Cycle 2 Day 1, Cohort 1, belumosudil 200 mg QD) was 2020 nanograms per milliliter, the “Cmax, geometric mean (geometric CV)” value ([1]; Cycle 2 Day 1, Cohort 2, belumosudil 200 mg BID) was 1890 nanograms per milliliter and the “Cmax, geometric mean (geometric CV)” value ([1]; Cycle 2 Day 1, Cohort 3, belumosudil 400 mg QD) was 3270 nanograms per milliliter. For the same molecule, the “AUC0-6 hr, Geometric Mean (Geometric Coefficient of Variation)” value (“AUC0-6 hr, Geometric Mean” for short) ([1]; Belumosudil 200 mg BID, Cycle 1 Day 1) was 4960 hours*nanograms per milliliter, the “AUC0-6 hr, Geometric Mean” value ([1]; Belumosudil 200 mg BID, Cycle 2 Day 1) was 7190 hours*nanograms per milliliter and the “AUC0-6 hr, Geometric Mean” value ([1]; Belumosudil 200 mg QD, Cycle 1 Day 1) was 8350 hours*nanograms per milliliter. For the same molecule, the “AUC0-6 hr, Geometric Mean” value ([1]; Belumosudil 200 mg QD, Cycle 2 Day 1) was 7090 hours*nanograms per milliliter, the “AUC0-6 hr, Geometric Mean” value ([1]; Belumosudil 400 mg QD, Cycle 1 Day 1) was 11500 hours*nanograms per milliliter and the “AUC0-6 hr, Geometric Mean” value ([1]; Belumosudil 400 mg QD, Cycle 2 Day 1) was 12000 hours*nanograms per milliliter. For the same molecule, the “Change From Baseline in Corticosteroids Dose, mean (SD)” value (from here on “Change From Baseline … (SD)”) ([2]; Cohort 1 200 mg QD) was −0.110 (0.101) milligrams per kilogram per day, the “Participants who discontinued CNI, n (%)” value ([2]; Cohort 1 200 mg QD) was 0 (0%) and the “Participants with reduction in CNI dose, n (%)” value ([2]; Cohort 1 200 mg QD) was 5 (83%). The “mean percent change in CS dose from baseline, nonresponder” value (“mean percent change … nonresponder” below) ([2]; Cohort 1 200 mg QD) was −26%, the “mean percent change in CS dose from baseline, overall” value (“mean percent change … overall” for short) ([2]; Cohort 1 200 mg QD) was −50% and the “mean percent change in CS dose from baseline, responder” value ([2]; Cohort 1 200 mg QD) was −63%. For the same molecule, the “Change From Baseline … (SD)” value ([2]; Cohort 2 200 mg BID) was −0.111 (0.147) milligrams per kilogram per day, the “Participants who discontinued CNI, n (%)” value ([2]; Cohort 2 200 mg BID) was 1 (17%) and the “Participants with reduction in CNI dose, n (%)” value ([2]; Cohort 2 200 mg BID) was 5 (83%). The “mean percent change … nonresponder” value ([2]; Cohort 2 200 mg BID) was −37%, the “mean percent change … overall” value ([2]; Cohort 2 200 mg BID) was −36% and the “mean percent change in CS dose from baseline, responder” value ([2]; Cohort 2 200 mg BID) was −36%. The “Change From Baseline … (SD)” value ([2]; Cohort 3 400 mg QD) was −0.116 (0.152) milligrams per kilogram per day, the “Participants who discontinued CNI, n (%)” value ([2]; Cohort 3 400 mg QD) was 3 (27%) and the “Participants with reduction in CNI dose, n (%)” value ([2]; Cohort 3 400 mg QD) was 6 (55%). For the same molecule, the “mean percent change … nonresponder” value ([2]; Cohort 3 400 mg QD) was −19%, the “mean percent change … overall” value ([2]; Cohort 3 400 mg QD) was −47% and the “mean percent change in CS dose from baseline, responder” value ([2]; Cohort 3 400 mg QD) was −63%. The “median time to corticosteroid therapy discontinuation” value ([2]; Example 1) was 29 weeks, the “mean corticosteroid dose reduction” value ([2]; Example 1, all patients) was 45% and the “mean corticosteroid dose reduction” value ([2]; Example 1, nonresponders) was 26%. For the same molecule, the “mean corticosteroid dose reduction” value ([2]; Example 1, responders) was 55%, the “mean percent change … nonresponder” value ([2]; Total, N=54) was −26% and the “mean percent change … overall” value ([2]; Total, N=54) was −45%. For the same molecule, the “mean percent change in CS dose from baseline, responder” value ([2]; Total, N=54) was −55% and the “proportion with CS reduction, % (95% CI)” value ([2]; Total, N=54) was 67%.
